PubChem BioAssay (NCI)
“And” between values parts separate entries of the source, which are not always exact repeats. Identical values can stand only once.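 Assay format: 96-well plates, 48-hour exposure. At the GI50, growth is halved. At the TGI there is no net growth.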

How the values were obtained:
Experiment in all cases: growth of human tumour cells (NCI), 48 h
[1] = tested on: U251 CNS
[2] = tested on: SR leukemia
[3] = tested on: CAKI-1 renal
[4] = tested on: SF-268 CNS
[5] = tested on: A549 NSCLC
[6] = tested on: RPMI-8226 leukemia
[7] = tested on: SK-MEL-2 melanoma
[8] = tested on: UACC-62 melanoma
[9] = tested on: HT29 colon
[10] = tested on: COLO 205 colon

Row | Structure (SMILES) | TGI [1] | TGI [2] | TGI [3] | TGI [4] | TGI [5] | TGI [6] | TGI [7] | TGI [8] | TGI [9] | TGI [10] | GI50 [1] | GI50 [2] | GI50 [3] | GI50 [4] | GI50 [5] | GI50 [6] | GI50 [7] | GI50 [8] | GI50 [9] | GI50 [10]
1 | O=c1c2cccc3cccc(c4n1CCCN=4)c32 | > 100 µM | > 100 µM | > 100 µM | > 100 µM | > 100 µM | > 100 µM | > 100 µM | > 100 µM | > 100 µM | > 100 µM | – | – | – | – | – | – | – | – | – | –
2 | CCN(CCNc1ccc(C)c2sc3cc(Cl)ccc3c(=O)c12)CC(C)(C)O | 18.5 µM | > 100 µM | 4.9 µM | 69.4 µM | 19.5 µM | 22.2 µM | 14.2 µM | 3.37 µM | 4.86 µM | 3.94 µM | 4.51 µM | 9.48 µM | 1.51 µM | 16.5 µM | 5.2 µM | 3.86 µM | 3.28 µM | 1.67 µM | 2 µM | 1.89 µM
3 | CCC1=C(c2ccc(OC)cc2)CC[C@]2(CCNC2=O)[C@@H]1C | 86.4 µM | 76.6 µM | > 89.7 µM | > 100 µM | > 100 µM | 45.7 µM | 52.4 µM | 67.1 µM | 59.6 µM | 19.9 µM | – | – | – | – | – | – | – | – | – | –
4 | CC/C(=C(/c1ccc(/C=C/C(=O)O)cc1)c1ccc2[nH]ncc2c1)c1ccc(F)cc1Cl | 23.5 µM | 29.4 µM | 25.6 µM | 27.4 µM | 25.1 µM | 41 µM | 27 µM | 21.8 µM | 32.4 µM | 35.3 µM | 9.44 µM | 4.03 µM | 11.9 µM | 11.9 µM | 8.58 µM | 7.72 µM | 10.2 µM | 5.85 µM | 13.3 µM | 15.5 µM
5 | CN(C)CCNC(=O)c1cccc2cc3ccc4ccccc4c3nc12 | 0.663 µM | 0.147 µM | 2.14 µM | 1.2 µM | 0.56 µM | 0.527 µM | 0.406 µM | 0.23 µM | 0.701 µM | 0.25 µM | – | – | – | – | – | – | – | – | – | –
6 | O=S(=O)(Cc1ccccc1)SCc1ccccc1 | 66.2 µM | > 66.4 µM | > 86.2 µM | > 100 µM | > 100 µM | 61.6 µM | > 70.9 µM | 55.8 µM | 54.1 µM | 34.3 µM | – | – | – | – | – | – | – | – | – | –
7 | CC(C)C/C(=N\NC(=O)c1ccncc1)c1cc(Cl)ccc1O | > 72.1 µM | 29 µM | 12.6 µM | > 76.6 µM | > 42.6 µM | > 50.7 µM | 31.9 µM | 8.08 µM | > 100 µM | 14.4 µM | 0.303 µM | 0.206 µM | 0.213 µM | 0.399 µM | 0.498 µM | 0.461 µM | 1.87 µM | 0.451 µM | 0.441 µM | 0.354 µM
8 | N=C(N)c1ccc(OCCCCCOc2ccc(C(=N)N)cc2)cc1 | 13.2 µM and 22.5 µM and 34.5 µM | 44.4 µM and 58.5 µM and > 100 µM | > 100 µM | 13.6 µM and 34.2 µM and 37.7 µM | > 50 µM and 37.1 µM and > 100 µM | > 100 µM | 16.9 µM and 47.1 µM and 22.4 µM | 9.38 µM and 23.6 µM and 29.6 µM | > 50 µM and 60.4 µM and > 100 µM | 8.57 µM and 18.4 µM and 29.1 µM | 2.79 µM | 13.3 µM and 13.6 µM and > 100 µM | 10.3 µM | 4.48 µM | 0.83 µM | 3.81 µM and 22.6 µM and 6.87 µM | 7.11 µM | 2.02 µM | 5.05 µM and 15.8 µM and 35.5 µM | 2.18 µM and 5.19 µM and 11.9 µM
9 | O=[N+]([O-])c1ccc(/C=C\c2ccc3c(c2)OCO3)c([N+](=O)[O-])c1 | 28.9 µM | 23.6 µM | 92 µM | 58.5 µM | 73.8 µM | 19.2 µM | 35.3 µM | 43.2 µM | 40.3 µM | 32.3 µM | – | – | – | – | – | – | – | – | – | –
10 | C=CC[PH+](c1ccccc1)c1ccccc1.C=CC[PH+](c1ccccc1)c1ccccc1.[Pt+2].[S-]c1ncccn1.[S-]c1ncccn1 | > 100 µM | 60.7 µM | 29.2 µM | > 100 µM | > 100 µM | 17.4 µM | > 100 µM | 24.8 µM | > 100 µM | 26.9 µM | 23.4 µM | 3.11 µM | 7.66 µM | 25.9 µM | 26.3 µM | 3.16 µM | 47.4 µM | 8.06 µM | 13.5 µM | 5.24 µM
11 | O=C1C2C(C(=O)N1CC[Se][Se]CCN1C(=O)C3C(C1=O)[C@H]1C=C[C@@H]3C1)[C@H]1C=C[C@@H]2C1 (some centres undefined) | 3.04 µM | > 26.6 µM | 0.828 µM | 0.76 µM | 4.72 µM | 5.17 µM | 5.78 µM | 3.24 µM | 12.7 µM | 4.98 µM | 0.597 µM | 1.1 µM | 0.301 µM | 0.271 µM | 0.447 µM | 2.19 µM | 1.98 µM | 1.37 µM | 0.355 µM | 2.12 µM
12 | Nc1ccn([C@@H]2S[C@H](CO)[C@@H](O)[C@@H]2F)c(=O)n1 | > 100 µM | > 100 µM | > 100 µM | > 100 µM | > 100 µM | > 100 µM | > 100 µM | > 38.2 µM | > 100 µM | > 100 µM | 0.367 µM | 0.0575 µM | 0.0412 µM | 0.26 µM | 0.161 µM | 2.65 µM | > 100 µM | 0.372 µM | 0.178 µM | 0.407 µM
13 | Nc1n[nH]c2ccc([C@@H]3Nc4c(F)cc5[nH]ncc5c4[C@H]4C5CCC(C5)[C@@H]34)cc12 (some centres undefined) | 17.3 µM | 15.1 µM | > 47.5 µM | > 47.5 µM | > 100 µM | 24.6 µM | > 44.3 µM | > 44.9 µM | > 34.4 µM | 1.67 µM | 0.376 µM | 0.0779 µM | 0.329 µM | 2.34 µM | 0.352 µM | 0.472 µM | 0.598 µM | 0.242 µM | 0.317 µM | 0.337 µM
14 | CCN(CC)CCS(=O)(=O)CCNc1ccnc2cc(Cl)ccc12 | 13.9 µM | > 46.3 µM | 6.08 µM | > 49.5 µM | > 61.7 µM | 21.6 µM | 14.1 µM | 29.6 µM | 2.29 µM | 8.31 µM | 3.17 µM | 0.812 µM | 0.782 µM | 2.86 µM | 4.12 µM | 1.41 µM | 2.35 µM | 3.83 µM | 0.868 µM | 2.66 µM
15 | Cc1cc2c(cc1C)[n+](=O)c(C(=O)/C=C/c1ccccc1[N+](=O)[O-])c(C)n2[O-] | 64.8 µM | > 95.7 µM | > 97.7 µM | 74.9 µM | > 100 µM | > 100 µM | 55.2 µM | 75.3 µM | > 100 µM | > 100 µM | – | – | – | – | – | – | – | – | – | –
16 | Nc1ncnc2sc(Nc3ccccc3)nc12 | > 100 µM | > 100 µM | > 100 µM | > 100 µM | > 100 µM | > 100 µM | > 100 µM | > 100 µM | > 100 µM | > 100 µM | – | – | – | – | – | – | – | – | – | –
17 | COc1ccc(C(=O)/C=C/c2ccc(OCc3ccccc3)c(OC)c2)cc1OC | > 100 µM | > 100 µM | > 100 µM | > 100 µM | 29.6 µM | 7.16 µM | 36.3 µM | > 100 µM | 89.7 µM | 22.6 µM | 3.51 µM | 2.47 µM | 4.07 µM | 3.83 µM | 3.05 µM | 1.88 µM | 11 µM | 4.01 µM | 3.19 µM | 3.53 µM
18 | Cc1nn2c(-c3nc4cc(Cl)c(Cl)cc4[nH]3)c(-c3ccc(F)cc3)nc2s1 | 10.5 µM | > 100 µM | > 59.4 µM | > 52.8 µM | > 42.3 µM | > 100 µM | 94.5 µM | > 46.3 µM | > 100 µM | > 100 µM | 2.56 µM | 42.9 µM | 7.09 µM | 3.15 µM | 1.92 µM | 2.44 µM | 14.2 µM | 3.49 µM | 1.91 µM | > 70.2 µM
19 | Cc1ccc(NC(=O)c2ccc(NC3=C(Cl)C(=O)N(Cc4ccccc4)C3=O)cc2)cc1Cl | 17.8 µM | 2.98 µM | 3.81 µM | 33.7 µM | 25.6 µM | 16.5 µM | 34.1 µM | 59.9 µM | 51.3 µM | > 100 µM | 3.97 µM | 0.864 µM | 1.68 µM | 12.4 µM | 12.9 µM | 3.58 µM | 12.5 µM | 15.5 µM | 6.81 µM | 13.5 µM
20 | CC1=NN(c2nc(N)nc(/C=C\c3ccccc3)n2)C(C)(C)C1 | 28.9 µM | 27.8 µM | 30.9 µM | 24.4 µM | 38.3 µM | 15 µM | 30.6 µM | 16.4 µM | 14 µM | 14 µM | 3.19 µM | 6.12 µM | 15.4 µM | 6.1 µM | 15.8 µM | 3.02 µM | 11.2 µM | 3.88 µM | 2.47 µM | 2.84 µM
21 | COc1cc2c(cc1OC)C(SC)C(=O)N(Cc1cccc(OC)c1OC)CC2 (centres undefined) | > 69.3 µM | 24.1 µM | > 88.5 µM | > 100 µM | > 82.7 µM | 47.5 µM | 19.1 µM | 30.2 µM | 17.1 µM | 16.9 µM | – | – | – | – | – | – | – | – | – | –
22 | Oc1c(I)cc(Cl)c2cccnc12 | > 100 µM and 32.8 µM | 8.61 µM | – | > 100 µM | > 100 µM | 27.2 µM and 10.8 µM | > 100 µM and 41.3 µM | 4.56 µM and 5.09 µM | > 100 µM | 21.8 µM and 75.4 µM | 3.9 µM and 3.65 µM | 3.15 µM | 2.38 µM and 21.4 µM | 3.86 µM and 6.22 µM | 3.96 µM and 8.89 µM | 3.43 µM and 2.86 µM | 11 µM and 14.7 µM | 1.81 µM and 2.06 µM | 11.3 µM and 6.1 µM | 5.21 µM and 5.72 µM
23 | Oc1ccc(-c2[nH]c3ccccc3c2-c2nc3ccccc3o2)cc1 | 11.6 µM | 25.7 µM | 14.2 µM | 12.9 µM | 11.4 µM | 52.3 µM | 12.3 µM | 15 µM | 11.5 µM | 12.6 µM | 2.86 µM | 4.78 µM | 2.62 µM | 2.89 µM | 3.15 µM | 14.3 µM | 3.03 µM | 3.1 µM | 3.65 µM | 3.54 µM
